This is an account of results in a melting point compilation (Tetko et al.).

With `O=C(O)c1ccc(C(F)(F)F)cc1C(F)(F)F`, the melting point lay in the range of 109 to 113 °C.

In turn, `CCCCCCCCCN` displayed a melting point of -1 °C.

On to `Oc1nsc(SCc2ccccc2)n1`, for which the melting point was in the range of 123 to 125 °C.

`CC(=O)c1cc(C)ccc1C` displayed a melting point of -18.1 °C.

For the compound `CC(C)N1C(=O)N(c2ccccc2)CSC1=NC(C)(C)C`, the melting point was 105 °C.

In the case of `O=S(=O)(Cl)c1ccc(S(=O)(=O)N2CCOCC2)cc1`, the melting point fell in the range of 150 to 152 °C.

For the compound `Oc1cc(C(F)(F)F)ccn1`, the melting point is 159 °C.

The compound `O=C=Nc1cccc(-n2cccc2)c1` yielded a melting point of 46 to 47 °C.

On to `COc1ccc(C[C@H](N)C(=O)O)cc1`, for which the melting point lay within 259 to 261 °C.

Regarding `CC(C)C(Nc1ccc(C(F)(F)F)cc1Cl)C(=O)OC(C#N)c1cccc(Oc2ccccc2)c1` (centres undefined), the melting point was 25 °C.

`Clc1cc(Cl)c2oc3c(Cl)c(Cl)cc(Cl)c3c2c1`: the melting point was 204 °C.

As for `COc1cc(Br)cc(F)c1F`, the melting point was 35 °C.

In the case of `O=C(Cl)c1cccc2ccsc12`, the melting point fell in the range of 84 to 86 °C.

`Cn1c(=O)c(C2=NNC(=O)C2=NNc2ccccc2Br)c(O)c2ccccc21` yielded a melting point of 270 °C.

Consider `CN(C)CCc1c[nH]c2cccc(O)c12`, for which the melting point was 174 °C.

The compound `CCCCC(C=O)CC` (centres undefined) returned a melting point of -76 °C.

For `Cc1cc(C(C)(C)C)ccc1O`, the melting point worked out at 27.5 °C.

Compound `O=[N+]([O-])c1ncccc1O` returned a melting point of 71 °C.

Turning to `COC(=O)c1c(OC)c(OC)c(C(=O)OC)c(C(=O)OC)c1OC`, the melting point is 52 to 55 °C.

`O=C(Nc1ccc(Cl)cc1)c1cccnc1Cl` gave a melting point of 148 to 149 °C.

In turn, `CCC(C)Cn1c(O)nnc1S` (centres undefined) displayed a melting point of 147 to 151 °C.

Regarding `COc1cc(OC)nc(NC(=O)NS(=O)(=O)c2c(-c3nnn(C)n3)cnn2C)n1`, the melting point was 170 °C.

Compound `O=C1OC(/C=C/c2ccccc2)Cc2ccccc21` (centres undefined) displayed a melting point of 84 °C.

In turn, `O=C(O)c1n[nH]c2ccccc12` gave a melting point of 259 to 262 °C.

`Nc1ccccc1/C=C/c1cc(/C=C/c2cccc([N+](=O)[O-])c2)c([N+](=O)[O-])cc1[N+](=O)[O-]` displayed a melting point of 250 °C.

Turning to `CCCCCCCCCCCCC1CCCCC1`, the melting point came to 12.5 °C.

`CC(=O)Nc1ccc(C(=O)C2CCNCC2)cc1`: the melting point fell in the range of 171 to 173 °C.

`Cc1c(C(=O)O)cnn1-c1ccc(Cl)cc1` came in with a melting point of 201 to 202 °C.

As for `Cn1cncc1CC1COC(=O)C1C(O)c1ccccc1` (centres undefined), the melting point is 179 °C.

On to `N#CC1(c2ccc(Cl)cc2)CC1`, for which the melting point is 52 to 56 °C.

Compound `O=C(Oc1ccc2ccccc2c1)c1ccccc1O` came in with a melting point of 95.5 °C.

`COc1ccccc1-c1nnc2n1CN(c1ccccc1)CS2` had a melting point of 165 °C.

`O[C@@H]1CC2=C(CCCC2)C[C@@H]1O`: the melting point lay in the range of 120 to 121 °C.

On to `O=C(O)c1ccc(F)cc1O`, for which the melting point stood at 191 °C.

In turn, `Oc1cc(F)c(F)cc1F` gave a melting point of 41 °C.

`CC(=O)OC1CCC2(C)C(=CCC3C4CCC(=O)C4(C)CCC32)C1` (centres undefined): the melting point came out at 147 °C.

Regarding `NS(=O)(=O)c1cc2c(cc1Cl)NC(CSCC(F)(F)F)NS2(=O)=O` (centres undefined), the melting point amounted to 206 °C.

For `C/C(OCCc1ccccc1)=C(/C#N)c1ccccc1`, the melting point came out at 118 °C.

`Cc1ccc(N=C=S)c([N+](=O)[O-])c1`: the melting point came to 65 °C.

Compound `C=C=CC` came in with a melting point of -136 °C.

`Cc1c(F)ccc(C(=O)O)c1Cl` returned a melting point of 188 °C.

Take `O=C(O)CCCSSCCCC(=O)O`: the melting point was 105 to 110 °C.

In turn, `N#Cc1c(NC(=O)c2ccccc2)sc2c1CCCC2` came in with a melting point of 110 °C.

For `Cc1cc([N+](=O)[O-])cnc1Br`, the melting point came out at 57 °C.
